Key:
loblolly cell lines = test: asa2 (pWVC33) selection on Geneticin, 5MT or AMT, PCR check (Example 32); type: cell-based, Pinus taeda; details: Geneticin 15 mg/L with casein hydrolysate, 5MT or AMT 30 mg/L with AA4; for PCR confirmed positive (number of lines): of 12, 8, 22 lines PCR tested
Method: Two loblolly cell lines were prepared for transformation using the method of Example 28, and co-cultivated with Agrobacterium tumefaciens transformed with pWVC33 (FIG. 7) as described in Example 28. Following eradication of Agrobacterium, each cell line was equally divided onto 6 plates each of 5 different selection media containing either casein hydrolysate and Geneticin at 15 mg/L, or amino acid mixture AA4 and either 5-methyltryptophan (5MT) at 30 or 50 mg/L or […] (AMT) at 30 or 50 mg/L. The results are show in FIG. 12. Putatively transformed sublines grow on Geneticin-containing plates and on both selection treatments where 30 mg/L of the methylated tryptophan selective analog was incorporated.

E. grandis clone IP1 = test: Geneticin selection of NPTII transformants, GUS staining of resistant shoot lines; type: cell-based, Eucalyptus grandis; details: 8 weeks
Method: (Arabidopsis ActinII.:GUSINT, constitutive::NPTII). As described in Example 4, leaf explants from E. grandis clone IP1 were pre-cultured on a pre-culture medium comprising auxin and an Agrobacterium inducer. The explants were transformed with Agrobacterium and co-cultivated for 3 days on a pre-culture medium with auxin enrichment (IAA at 2 mg/l, instead of 0.1 mg/l NAA in standard regeneration medium) and acetosyringone (250 μM). Then the explants were transferred to Euc Regeneration medium supplemented with 400 mg/l timentin for 4 days. The explants were then transferred to selection medium containing geneticin (30 or 40 mg/l geneticin). After 8 weeks on selection medium, samples of geneticin-resistant shoot cultures in the early developmental stage were collected and stained with x-gluc for GUS expression.

[1] = tested on: E. camaldulensis clone C9; test: as above; type: cell-based, Eucalyptus camaldulensis; details: 8 weeks selection
Method: Similar to the methods disclosed in Example 16, E. camaldulensis clone C9 was transformed with GV2260 harboring p35SGUSINT. Following regeneration, the explants were transferred to a selection medium containing geneticin (30, 40, 50, or 60 mg/l geneticin). For geneticin at levels of 30 and 50 mg/l, additional sets of explants were pre-cultured for 1 day. After 8 weeks on selection medium, samples of geneticin-resistant shoot cultures in the early developmental stage were collected and stained with x-gluc for GUS expression.

[2] = tested on: Loblolly pine (Pinus taeda) and hybrid pine (P. taeda×P. rigida) embryogenic cell lines; test: Selection of co-bombarded (als + nptII) pine embryogenic cells on Geneticin or Oust; type: cell-based
Excerpt: This example describes the selection of genetically transformed pine, using a selectable marker encoding ALS on selection media containing a sulfonylurea herbicide, at a level sufficient for selection in model plants. In some experiments, including the one described in the following example, a vector that would express the als gene in the plant tissue was co-bombarded into the cells with a vector that would express the nptII gene in the plant tissue, and the co-bombarded cells were then divided into two groups and placed onto selection medium containing either a sulfonylurea herbicide or Geneticin, so that the frequency with which transformants are selected on Geneticin could be compared with the frequency of selection on herbicide.
Twenty identical replicates from the suspension cells of each of these three pine lines were prepared for gene transfer according to the method described in U.S. Pat. No. 6,518,485. Polyester membrane supports of a defined weight were sterilized by autoclaving and placing in separate sterile Buchner funnels, and approximately 1.5 ml of uniform pine embryogenic suspension at SCV 30 was pipetted onto each support such that the embryogenic tissue was evenly distributed over its surface. […]

[3] = tested on: Eucalyptus grandis x urophylla Clone IPB1; test: Geneticin selection of NPTII transformants, GUS staining of resistant calli; type: cell-based; details: about 10 weeks
Method: Before transforming, the explants were pre-cultured for 4 days on a medium having auxin enrichment (IAA at 2 mg/l instead of 0.1 mg/l NAA in standard regeneration medium) and acetosyringone (250 μM). As described in Example 6, the explants were infected with Agrobacterium, co-cultivated on the same medium for 3 days, and then transferred to a regeneration medium supplemented with 400 mg/l timentin for 4 days. Then, the explants were transferred to a selection medium containing geneticin instead of an herbicide selection agent.
The transformants were placed on geneticin selection medium containing geneticin (either 20 or 30 mg/l). Instead of the 3- or 4-week transfer cycles used with an herbicide selection medium, the explants were transferred bi-weekly to fresh geneticin medium. After about 10 weeks of growth on geneticin selection medium, samples of geneticin-resistant calli were collected and stained with x-gluc for GUS expression, as described in Example 7. The following data summarizes GUS expression in geneticin-selected transformants.

[4] = tested on: loblolly pine and loblolly x pitch pine hybrid embryogenic lines; test: Growth of pine embryogenic lines on Oust with and without casein hydrolysate (FIG. 9); type: cell-based, Pinus taeda; loblolly x pitch pine hybrid; details: Oust at 0, 10, 20, 40, and 80 nM, DCR2 with and without casein hydrolysate, twelve weeks
Method: Six embryogenic lines, two each from three different families (two genetically diverse loblolly pine families and a family of a loblolly x pitch pine hybrid), were evaluated. Uniform suspension cultures from each of the genetically different tissue culture lines were established as described in Example 26. Three identical replicates from the suspension cells of each of these six lines were plated as described in Example 26 on each of ten formulations of DCR2 medium, namely with and without casein hydrolysate, and containing the herbicide Oust at 0, 10, 20, 40, and 80 nM. The plates were sealed and incubated under the same conditions used for pre-experimental initiation, maintenance and selection steps in Example 26. Every three weeks the culture was transferred to fresh medium of the same formulation as previously provided, following weighing under sterile conditions of the tissue on the polyester support.

E. dunnii clone DUN00001 = test: Shoot regeneration from Agrobacterium-inoculated internodal explants, zeatin/NAA optimisation; type: cell-based, Eucalyptus dunnii
Method: This example teaches a method to optimize the levels of growth regulators for shoot regeneration from the recalcitrant commercial E. dunnii clone DUN00001 or other recalcitrant clones. Internodal explants are prepared as described in Example 1 and are inocultated with Agrobacterium as described in Example 5. Following co-cultivation, transformed shoot clumps are transferred to a shoot regeneration medium. […] To optimize the auxin and cytokinin concentrations in the shoot regeneration media, several combinations of hormones were evaluated as a function of the production of elongated shoots. […] During the initial screening, the zeatin levels were 10, 1, and 0.1 mg/l and the NAA levels were 0.01, 0.1 and 1 mg/l. […] The following data summarize the attempt to optimize the level of zeatin and NAA.

In the case of CC(c1c[nH]c2ccccc12)[C@H](N)C(=O)O (stereo partly drawn) [AMT30, β-methyltryptophan], the “False positive Frequency” value (loblolly cell lines) is reported as 0.09 and the “PCR confirmed positive (number of lines)” value (loblolly cell lines) is reported as 20.

In the case of CN[C@@H]1[C@@H](O)[C@@H](O[C@@H]2[C@@H](O)[C@H](O[C@H]3O[C@H]([C@@H](C)O)[C@@H](O)[C@H](O)[C@H]3N)[C@@H](N)C[C@H]2N)OC[C@]1(C)O [Geneticin], the “% GUS^+ Shoots” value (E. grandis clone IP1; explant source rooted plants, Geneticin 30 mg/l) is reported as 0%, the “No. GUS^+ Shoot Lines” value (E. grandis clone IP1; explant source rooted plants, Geneticin 30 mg/l, 1 line stained) is reported as 0 and the “% GUS^+ Shoots” value (E. grandis clone IP1; explant source shoot cluster, Geneticin 30 mg/l) is reported as 50%. The “No. GUS^+ Shoot Lines” value (E. grandis clone IP1; explant source shoot cluster, Geneticin 30 mg/l, 16 lines stained) was 8, the “% GUS^+ Shoots” value (E. grandis clone IP1; explant source shoot cluster, Geneticin 40 mg/l) was 57% and the “No. GUS^+ Shoot Lines” value (E. grandis clone IP1; explant source shoot cluster, Geneticin 40 mg/l, 7 lines stained) was 4. For the same compound, the “% GUS^+ Shoots” value ([1]; Geneticin 30 mg/l, pre-culture 1 day) was 37.9%, the “No. GUS^+ Shoot Lines” value ([1]; Geneticin 30 mg/l, pre-culture 1 day, 29 lines stained) was 11 and the “% GUS^+ Shoots” value ([1]; Geneticin 30 mg/l, pre-culture 4 days) was 12.8%. The “No. GUS^+ Shoot Lines” value ([1]; Geneticin 30 mg/l, pre-culture 4 days, 39 lines stained) was 5, the “% GUS^+ Shoots” value ([1]; Geneticin 40 mg/l, pre-culture 4 days) was 11.8% and the “No. GUS^+ Shoot Lines” value ([1]; Geneticin 40 mg/l, pre-culture 4 days, 68 lines stained) was 8. The “% GUS^+ Shoots” value ([1]; Geneticin 50 mg/l, pre-culture 1 day) was 50%, the “No. GUS^+ Shoot Lines” value ([1]; Geneticin 50 mg/l, pre-culture 1 day, 12 lines stained) was 6 and the “% GUS^+ Shoots” value ([1]; Geneticin 50 mg/l, pre-culture 4 days) was 19.4%. For the same compound, the “No. GUS^+ Shoot Lines” value ([1]; Geneticin 50 mg/l, pre-culture 4 days, 31 lines stained) was 7, the “% GUS^+ Shoots” value ([1]; Geneticin 60 mg/l, pre-culture 4 days) was 50% and the “No. GUS^+ Shoot Lines” value ([1]; Geneticin 60 mg/l, pre-culture 4 days, 8 lines stained) was 4. For the same compound, the “putative transgenic sublines in which stable transformation is verified” value ([2]; selection on Geneticin 15 mg/L, 12 sublines tested) was 100%, the “False positive Frequency” value (loblolly cell lines) was 0.08 and the “PCR confirmed positive (number of lines)” value (loblolly cell lines) was 11. The “No. GUS^+ Calli” value ([3]; Geneticin 20 mg/l, regular shaded light, 5 calli stained) was 0, the “No. GUS^+ Calli” value ([3]; Geneticin 30 mg/l, dark, 6 calli stained) was 4 and the “No. GUS^+ Calli” value ([3]; Geneticin 30 mg/l, regular shaded light, 17 calli stained) was 13.

In the case of COC(=O)c1ccccc1S(=O)(=O)NC(=O)Nc1nc(C)cc(C)n1 [Oust], the “success as selective agent (stopping cell growth), FIG. 9” value [4] is reported as “successful as a selective agent at multiple concentrations only in the absence of casein hydrolysate” and the “putative transgenic sublines that were false positives” value ([2]; selection on 50 nM Oust, medium with casein hydrolysate) is reported as “Eighty”.

For C/C(=C\CNc1ncnc2[nH]cnc12)CO [Zeatin, zeatin], the “shoot induction, comparison of levels in two experiments” value (E. dunnii clone DUN00001; Table 5 experiments) was “zeatin at 5 mg/l is better than 10 mg/l” and the “shoot regeneration, initial screening of levels” value (E. dunnii clone DUN00001; zeatin 10, 1, and 0.1 mg/l with NAA 0.01, 0.1 and 1 mg/l) was “better results at 10 mg/l than at 1 mg/l or 0.1 mg/l”.

From patent US7960614B2, “Plant transformation and selection” (Arborgen, LLC, priority 2003, dated 2011)
